Measurements published in PubChem BioAssay AID1963836 (Molecular Pharmacology Branch, DTP, NCI, 2024).

System: 857933-349-R-J2-PDC complex spheroid viability
Test: Anticancer human tumor 857933-349-R-J2-PDC patient-derived colon adenocarcinoma cell line growth inhibition [POLQ]
Settings: for IC50: curve of first compound; for viability, T/C: stronger effect = lower value
How it was run: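 Complex spheroid viability model combining PDC tumour cells with endothelial (HUVEC) and MSC stromal cells. Novobiocin, ART-558 or RP6685 were tested singly and in combination with standard and investigational anticancer drugs. Each was titrated in half-log steps from near clinical Cmax, or from 10 microM where Cmax was unknown.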
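Further: spheroids exposed to compounds for seven days before readout.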

For `CC(=O)O[C@H]1C(=O)[C@@]2(C)[C@H]([C@H](OC(=O)c3ccccc3)[C@]3(O)C[C@H](OC(=O)[C@H](O)[C@@H](NC(=O)c4ccccc4)c4ccccc4)C(C)=C1C3(C)C)[C@]1(OC(C)=O)CO[C@@H]1C[C@@H]2O` + Cc1cccc(N(C)C(=O)C2C(O)CCN2c2nc(C)cc(C(F)(F)F)c2C#N)c1, the IC50 (second compound 0.0316 µM) was under 9.49 nM, the IC50 (second compound 0.1 µM) was under 9.49 nM and the IC50 (second compound 0.316 µM) was under 9.49 nM. The IC50 (second compound 1 µM) was under 9.49 nM, the IC50 (second compound 3.16 µM) was 10.7 nM and the IC50 (second compound 10 µM) was under 9.49 nM. The viability, T/C (second compound 0.0316 µM, first compound 0.00949 µM) was 45.4%, the viability, T/C (second compound 0.0316 µM, first compound 0.03 µM) was 21.2% and the viability, T/C (second compound 0.0316 µM, first compound 0.0949 µM) was 10.7%. The viability, T/C (second compound 0.0316 µM, first compound 0.3 µM) was 11.8%, the viability, T/C (second compound 0.0316 µM, first compound 0.949 µM) was 9.59% and the viability, T/C (second compound 0.0316 µM, first compound 3 µM) was 14.6%. It also gave a viability, T/C (second compound 0.1 µM, first compound 0.00949 µM) of 40.1%, a viability, T/C (second compound 0.1 µM, first compound 0.03 µM) of 16.9% and a viability, T/C (second compound 0.1 µM, first compound 0.0949 µM) of 12.6%. It also gave a viability, T/C (second compound 0.1 µM, first compound 0.3 µM) of 10.6%, a viability, T/C (second compound 0.1 µM, first compound 0.949 µM) of 14.4% and a viability, T/C (second compound 0.1 µM, first compound 3 µM) of 13.8%. It also gave a viability, T/C (second compound 0.316 µM, first compound 0.00949 µM) of 40%, a viability, T/C (second compound 0.316 µM, first compound 0.03 µM) of 19.5% and a viability, T/C (second compound 0.316 µM, first compound 0.0949 µM) of 10.1%. The viability, T/C (second compound 0.316 µM, first compound 0.3 µM) was 12%, the viability, T/C (second compound 0.316 µM, first compound 0.949 µM) was 12.3% and the viability, T/C (second compound 0.316 µM, first compound 3 µM) was 12.4%. The viability, T/C (second compound 1 µM, first compound 0.00949 µM) was 47.7%, the viability, T/C (second compound 1 µM, first compound 0.03 µM) was 20% and the viability, T/C (second compound 1 µM, first compound 0.0949 µM) was 12.6%. It also gave a viability, T/C (second compound 1 µM, first compound 0.3 µM) of 10.4%, a viability, T/C (second compound 1 µM, first compound 0.949 µM) of 10.9% and a viability, T/C (second compound 1 µM, first compound 3 µM) of 13.4%. For the same molecule, the viability, T/C (second compound 3.16 µM, first compound 0.00949 µM) was 54%, the viability, T/C (second compound 3.16 µM, first compound 0.03 µM) was 15.1% and the viability, T/C (second compound 3.16 µM, first compound 0.0949 µM) was 10.4%. It also gave a viability, T/C (second compound 3.16 µM, first compound 0.3 µM) of 12.1%, a viability, T/C (second compound 3.16 µM, first compound 0.949 µM) of 12.1% and a viability, T/C (second compound 3.16 µM, first compound 3 µM) of 13.5%. For the same molecule, the viability, T/C (second compound 10 µM, first compound 0.00949 µM) was 35.4%, the viability, T/C (second compound 10 µM, first compound 0.03 µM) was 14.5% and the viability, T/C (second compound 10 µM, first compound 0.0949 µM) was 13.6%. For the same molecule, the viability, T/C (second compound 10 µM, first compound 0.3 µM) was 11.8%, the viability, T/C (second compound 10 µM, first compound 0.949 µM) was 13.3% and the viability, T/C (second compound 10 µM, first compound 3 µM) was 15.4%.
Work on `CC[C@@]1(O)C(=O)OCc2c1cc1n(c2=O)Cc2cc3c(CN(C)C)c(O)ccc3nc2-1` + Cc1cccc(N(C)C(=O)C2C(O)CCN2c2nc(C)cc(C(F)(F)F)c2C#N)c1 yielded an IC50 (second compound 0.0316 µM) of 65.2 nM, an IC50 (second compound 0.1 µM) of 99.9 nM and an IC50 (second compound 0.316 µM) of 69.5 nM. It also gave an IC50 (second compound 1 µM) of 72.2 nM, an IC50 (second compound 3.16 µM) of 97.4 nM and an IC50 (second compound 10 µM) of 18.9 nM. The viability, T/C (second compound 0.0316 µM, first compound 0.000316 µM) was 98.7%, the viability, T/C (second compound 0.0316 µM, first compound 0.001 µM) was 102% and the viability, T/C (second compound 0.0316 µM, first compound 0.00316 µM) was 92.8%. It also gave a viability, T/C (second compound 0.0316 µM, first compound 0.01 µM) of 80.6%, a viability, T/C (second compound 0.0316 µM, first compound 0.0316 µM) of 61.8% and a viability, T/C (second compound 0.0316 µM, first compound 0.1 µM) of 43.1%. The viability, T/C (second compound 0.1 µM, first compound 0.000316 µM) was 106%, the viability, T/C (second compound 0.1 µM, first compound 0.001 µM) was 94.5% and the viability, T/C (second compound 0.1 µM, first compound 0.00316 µM) was 88.4%. It also gave a viability, T/C (second compound 0.1 µM, first compound 0.01 µM) of 92.3%, a viability, T/C (second compound 0.1 µM, first compound 0.0316 µM) of 73.6% and a viability, T/C (second compound 0.1 µM, first compound 0.1 µM) of 49.3%. The viability, T/C (second compound 0.316 µM, first compound 0.000316 µM) was 76.4%, the viability, T/C (second compound 0.316 µM, first compound 0.001 µM) was 108% and the viability, T/C (second compound 0.316 µM, first compound 0.00316 µM) was 91.4%. The viability, T/C (second compound 0.316 µM, first compound 0.01 µM) was 78%, the viability, T/C (second compound 0.316 µM, first compound 0.0316 µM) was 76.2% and the viability, T/C (second compound 0.316 µM, first compound 0.1 µM) was 38.7%. For the same molecule, the viability, T/C (second compound 1 µM, first compound 0.000316 µM) was 98.8%, the viability, T/C (second compound 1 µM, first compound 0.001 µM) was 75.8% and the viability, T/C (second compound 1 µM, first compound 0.00316 µM) was 83.8%. It also gave a viability, T/C (second compound 1 µM, first compound 0.01 µM) of 73.4%, a viability, T/C (second compound 1 µM, first compound 0.0316 µM) of 76.6% and a viability, T/C (second compound 1 µM, first compound 0.1 µM) of 40.7%. For the same molecule, the viability, T/C (second compound 3.16 µM, first compound 0.000316 µM) was 95.7%, the viability, T/C (second compound 3.16 µM, first compound 0.001 µM) was 79.3% and the viability, T/C (second compound 3.16 µM, first compound 0.00316 µM) was 77.9%. It also gave a viability, T/C (second compound 3.16 µM, first compound 0.01 µM) of 74.1%, a viability, T/C (second compound 3.16 µM, first compound 0.0316 µM) of 69.4% and a viability, T/C (second compound 3.16 µM, first compound 0.1 µM) of 46%. The viability, T/C (second compound 10 µM, first compound 0.000316 µM) was 77.9%, the viability, T/C (second compound 10 µM, first compound 0.001 µM) was 92.3% and the viability, T/C (second compound 10 µM, first compound 0.00316 µM) was 85.2%. The viability, T/C (second compound 10 µM, first compound 0.01 µM) was 56.6%, the viability, T/C (second compound 10 µM, first compound 0.0316 µM) was 50.6% and the viability, T/C (second compound 10 µM, first compound 0.1 µM) was 37.9%.
